Laboratory results published in publication PMC5529524, “2-Oxoadenosine induces cytotoxicity through intracellular accumulation of 2-oxo-ATP and depletion of ATP but not via the p38 MAPK pathway” (Scientific Reports, 2017).

Key:
Type in all cases: biochemical
[1] = biological target: T1, adenosine kinase (recombinant human ADK, rhADK) (Homo sapiens, UniProt P55263); assay: in vitro rhADK phosphorylation assay, HPLC of monophosphate product
[2] = biological target: T1, adenosine kinase (recombinant human ADK, rhADK); assay: in vitro rhADK phosphorylation assay, HPLC of 2-oxo-AMP
[3] = biological target: T1, adenosine kinase (recombinant human ADK, rhADK); assay: in vitro rhADK enzyme assay, HPLC of 2-oxo-AMP product (IC50 […] with Ado as substrate)

T1 sequence (P55263 2-362): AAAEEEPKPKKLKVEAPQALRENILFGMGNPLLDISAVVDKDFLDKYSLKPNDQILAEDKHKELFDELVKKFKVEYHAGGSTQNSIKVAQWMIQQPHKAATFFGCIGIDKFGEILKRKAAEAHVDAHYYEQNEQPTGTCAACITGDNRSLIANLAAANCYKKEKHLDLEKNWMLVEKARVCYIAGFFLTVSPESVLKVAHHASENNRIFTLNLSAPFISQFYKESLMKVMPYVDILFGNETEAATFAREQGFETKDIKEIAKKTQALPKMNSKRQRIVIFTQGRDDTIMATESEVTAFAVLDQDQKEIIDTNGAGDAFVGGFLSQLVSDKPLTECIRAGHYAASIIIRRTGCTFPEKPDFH

For `Nc1nc(Cl)nc2c1ncn2[C@@H]1O[C@H](CO)[C@@H](O)[C@H]1O` [2-chloroadenosine], the “in vitro rhADK phosphorylation assay, HPLC of monophosphate product” value [1] was “Chromatograms of the reaction products of ADK with 2-Cl-Ado or AICAR showed novel peaks”.
In the case of `Nc1[nH]c(=O)nc2c1ncn2[C@@H]1O[C@H](CO)[C@@H](O)[C@H]1O` [2-oxoadenosine, 1,2-Dihydro-2-oxoadenosine], the “in vitro rhADK phosphorylation assay, HPLC of 2-oxo-AMP” value [2] is reported as “Recombinant human ADK, ATP and nucleosides 2-oxo-Ado (a) or Ado (b) were reacted”.
`C[S+]([O-])c1ccc(-c2nc(-c3ccncc3)c(-c3ccc(F)cc3)[nH]2)cc1` (stereo not drawn) [SB203580] gave an IC50 [3] of 8.6 µM.
